Data on 2 compounds can be found in ChEMBL document CHEMBL5543078, “Peptidomimetics as potent dual SARS-CoV-2 cathepsin-L and main protease inhibitors: In silico design, synthesis and pharmacological characterization” (Eur J Med Chem, 2024).

For data set [1], the system named is SARS-CoV-2. The data set can be described thus: microbe, parasite or virus in culture. The following applies: Severe acute respiratory syndrome coronavirus 2, NVDBB-2220 (Alpha), Vero.
Description: Antiviral activity against SARS-CoV-2 NVDBB-2220 (Alpha) infected in African green monkey Vero cells assessed as reduction in virus-induced cytopathic effect incubated for 6 to 7 days by microscopic analysis
Data set [2] can be described thus: Stability in simulated intestinal fluid assessed as parent compound remaining incubated upto 120 mins by LC-MS analysis. It counts as ADME. As to conditions: read-out: Stability.
Data set [3] can be described thus: Stability in simulated gastric fluid assessed as parent compound remaining incubated upto 120 mins by LC-MS analysis. The following applies: read-out: Stability. The class given is ADME.
Data set [4] can be described thus: Metabolic stability in human liver microsomes assessed as intrinsic clearance incubated upto 60 mins in presence of NADPH by LC-MS analysis. The class given is ADME, Microsome. The following applies: read-out: CLH. Background: Liver microsomes are vesicles of endoplasmic reticulum, rich in cytochrome P450 enzymes.
The subject of a further data set is Human coronavirus OC43. It counts as functional, organism-based.
Data set [5] is described as follows: Half life in human plasma at 10 uM measured upto 180 mins by LC-MS analysis. It counts as ADME, cell-free.
The nature of data set [6]: Cytotoxicity against African green monkey Vero cells assessed as change in cell morphology by measuring minimum cytotoxic concentration by microscopic analysis. The following applies: chlorocebus sabaeus. It counts as toxicity, cell-based.
The nature of data set [7]: Metabolic stability in human liver microsomes assessed as half life incubated upto 60 mins in presence of NADPH and UDPGA by LC-MS analysis. The class given is ADME, Microsome.
Another data set relates to Human coronavirus 229E. It counts as functional, organism-based.
The test system of data set [8] is SARS-CoV-2. The data set can be described thus: microbe, parasite or virus in culture. As to conditions: Severe acute respiratory syndrome coronavirus 2, Omicron B1.1.529, Vero.
Description: Antiviral activity against SARS-CoV-2 Omicron B1.1.529 infected in African green monkey Vero cells assessed as reduction in virus-induced cytopathic effect incubated for 6 to 7 days by microscopic analysis
Data set [9] has as its system SARS-CoV-2. The data set can be described thus: microbe, parasite or virus in culture. As to conditions: Severe acute respiratory syndrome coronavirus 2, Wuhan/WIV04/2020, Vero.
Description: Antiviral activity against SARS-CoV-2 Wuhan/WIV04/2020 infected in African green monkey Vero cells assessed as reduction in virus-induced cytopathic effect incubated for 6 to 7 days by microscopic analysis
Data set [10] in a line: Metabolic stability in human liver microsomes assessed as half life incubated upto 60 mins in presence of NADPH by LC-MS analysis. The class given is ADME, Microsome.
Data set [11] concerns SARS-CoV-2. Description: microbe, parasite or virus in culture. As to conditions: Severe acute respiratory syndrome coronavirus 2, 860-J1 (Delta), Vero.
Description: Antiviral activity against SARS-CoV-2 860-J1 (Delta) infected in African green monkey Vero cells assessed as reduction in virus-induced cytopathic effect incubated for 6 to 7 days by microscopic analysis
Data set [12] addresses Replicase polyprotein 1ab (Severe acute respiratory syndrome coronavirus 2, UniProt P0DTD1). Description: Inhibition of recombinant SARS-CoV-2 main protease using DABCYL-KTSAVLQSGFRKME-EDANS as fluorescent substrate preincubated for 30 mins followed by substrate addition by FRET assay.

The source made the active and inactive calls. No cut-off for these calls is given here. Residues, ends and D or L forms follow the SMILES beside them. *: point of attachment. NHBn = c1ccc(CN*)cc1; ClAc = O=C(CCl)*

A word on the EC50: it is the concentration giving half of the maximal effect. A word on the half-life: it is the time in which the quantity being followed falls by half. As a reminder, the IC50 is the concentration at which inhibition is half-maximal. `CC(C)C[C@@H](NC(=O)CCl)C(=O)N[C@@H](Cc1c[nH]c2ccccc12)C(=O)NCc1ccccc1`: the EC50 with SARS-CoV-2 [1] is 570 nM; in the data set with SARS-CoV-2 [8], 1370 nM; in the data set with SARS-CoV-2 [9], 80 nM; with SARS-CoV-2 [11], 1080 nM. Further, the remaining at 2 h in [2] and in [3] was more than 80% in each case. Also, the CLint scaled in data set [4] is less than 45 mL/min/kg. Moreover, the result with Human coronavirus OC43 and with Human coronavirus 229E was Active. The compound further displayed a half-life at 10 µM in [5] of 3.87 h. Besides, the MCC in data set [6] is more than 100 µM. In addition, the half-life worked out at 1.25 h in data set [7] and 1.24 h in [10]. Moreover, the IC50 in [12] is more than 30000 nM.

Take `CC(C)C[C@H](NC(=O)[C@H](Cc1c[nH]c2ccccc12)NC(=O)CCl)C(=O)NCc1ccccc1` (ClAc-Trp-Leu-NHBn): the EC50 in the data set on SARS-CoV-2 [1] came out at 410 nM; in the data set with SARS-CoV-2 [8], 400 nM; in the data set on SARS-CoV-2 [9] it was 250 nM; with SARS-CoV-2 [11], 1250 nM. The remaining at 2 h in data set [2] and in data set [3] was more than 80% in each case. The result in the data set on Human coronavirus OC43 and in the data set with Human coronavirus 229E was Active. The compound also came in with a half-life at 10 µM in data set [5] of 0.407 h. The MCC in [6] amounted to 20 µM. The IC50 in data set [12] was 8320 nM.
